ChEMBL document CHEMBL1770133, “Design of potent and selective GPR119 agonists for type II diabetes” (Bioorg Med Chem Lett, 2011)
pEC50, pIC50: −log10 of the molar value. ≈ marks a conversion by molar mass, not a printed value.

Legend:
[1] = target: T1, Glucose-dependent insulinotropic receptor (Mus musculus, UniProt Q7TQP3); assay: Agonist activity at mouse GPR119 expressed in CHO cells co-expressing Galpha15 assessed as increase of intracellular cAMP accumulation after 60 mins by HTRF assay; type: functional, cell-based
T1 sequence (Q7TQP3 whole entry): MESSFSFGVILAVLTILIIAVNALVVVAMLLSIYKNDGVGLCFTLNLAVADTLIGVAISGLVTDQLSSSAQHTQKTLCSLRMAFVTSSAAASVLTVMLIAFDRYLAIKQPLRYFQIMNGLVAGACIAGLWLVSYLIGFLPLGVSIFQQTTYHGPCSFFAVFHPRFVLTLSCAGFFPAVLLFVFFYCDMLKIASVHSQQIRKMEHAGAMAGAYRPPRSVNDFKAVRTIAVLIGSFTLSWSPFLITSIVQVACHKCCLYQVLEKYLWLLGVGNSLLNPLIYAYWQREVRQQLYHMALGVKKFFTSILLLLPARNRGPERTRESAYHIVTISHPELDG

[2] = target: T2, Glucose-dependent insulinotropic receptor (Homo sapiens, UniProt Q8TDV5); assay: Agonist activity at human GPR119 expressed in CHO cells co-expressing Galpha15 assessed as increase of intracellular cAMP accumulation after 60 mins by HTRF assay; type: functional, cell-based
T2 sequence (Q8TDV5 whole entry): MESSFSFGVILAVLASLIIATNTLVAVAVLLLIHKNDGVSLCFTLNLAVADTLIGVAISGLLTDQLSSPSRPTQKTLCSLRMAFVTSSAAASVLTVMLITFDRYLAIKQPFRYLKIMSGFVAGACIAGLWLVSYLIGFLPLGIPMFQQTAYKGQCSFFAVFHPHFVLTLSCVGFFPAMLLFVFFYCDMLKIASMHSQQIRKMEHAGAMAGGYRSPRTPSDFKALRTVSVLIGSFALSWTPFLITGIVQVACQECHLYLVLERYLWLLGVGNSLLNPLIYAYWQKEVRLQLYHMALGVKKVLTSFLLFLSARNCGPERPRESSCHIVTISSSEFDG

[3] = target: T3, Glucose-dependent insulinotropic receptor (Mus musculus) (UniProt Q7TQP3); assay: Agonist activity at mouse GPR119 expressed in CHO cells co-expressing Galpha15 assessed as increase of intracellular cAMP accumulation at 10 uM after 60 mins by HTRF assay; type: functional, cell-based
T3 sequence (whole entry): T1 sequence (Q7TQP3 whole entry)

[4] = Clearance in mouse at 1 mg/kg, iv and 10 mg/kg, po; type: ADME, organism-based; conditions: in vivo
[5] = system: Mus musculus; assay: Dose normalized AUC in mouse at 1 mg/kg, iv and 10 mg/kg, po; type: ADME, organism-based; conditions: in vivo
[6] = Half life in mouse at 1 mg/kg, iv and 10 mg/kg, po; type: ADME, organism-based; conditions: in vivo
[7] = Volume of distribution at steady state in mouse at 1 mg/kg, iv and 10 mg/kg, po; type: ADME, organism-based; conditions: in vivo, read-out: Vdss
[8] = target: T4, Glucose-dependent insulinotropic receptor (Homo sapiens) (UniProt Q8TDV5); assay: Agonist activity at human GPR119 expressed in CHO cells co-expressing Galpha15 assessed as increase of intracellular cAMP accumulation at 10 uM after 60 mins by HTRF assay; type: functional, cell-based
T4 sequence (whole entry): T2 sequence (Q8TDV5 whole entry)

[9] = target: T5, Voltage-gated inwardly rectifying potassium channel KCNH2 (Homo sapiens, UniProt Q12809); assay: Inhibition of human ERG
[10] = Solubility of compound in PEG400 after 3 to 7 days; type: physicochemical
[11] = system: Mus musculus; assay: Antidiabetic activity in high fat fed po dosed C57BL/6 mouse assessed as change in AUC of blood glucose level administered 1 hr before glucose challenge measured up to 120 mins by oral glucose tolerance test; type: functional; conditions: C57BL6, Blood, read-out: MED
[12] = target: T5, Voltage-gated inwardly rectifying potassium channel KCNH2; assay: Inhibition of human ERG by patch clamp technique
[13] = system: Mus musculus; assay: Antidiabetic activity in high fat fed C57BL/6 mouse assessed as change in AUC of blood glucose level at 30 mg/kg, po qd administered 1 hr before glucose challenge measured up to 120 mins by oral glucose tolerance test relative to control; type: functional, C57BL6

T5 sequence (Q12809 whole entry): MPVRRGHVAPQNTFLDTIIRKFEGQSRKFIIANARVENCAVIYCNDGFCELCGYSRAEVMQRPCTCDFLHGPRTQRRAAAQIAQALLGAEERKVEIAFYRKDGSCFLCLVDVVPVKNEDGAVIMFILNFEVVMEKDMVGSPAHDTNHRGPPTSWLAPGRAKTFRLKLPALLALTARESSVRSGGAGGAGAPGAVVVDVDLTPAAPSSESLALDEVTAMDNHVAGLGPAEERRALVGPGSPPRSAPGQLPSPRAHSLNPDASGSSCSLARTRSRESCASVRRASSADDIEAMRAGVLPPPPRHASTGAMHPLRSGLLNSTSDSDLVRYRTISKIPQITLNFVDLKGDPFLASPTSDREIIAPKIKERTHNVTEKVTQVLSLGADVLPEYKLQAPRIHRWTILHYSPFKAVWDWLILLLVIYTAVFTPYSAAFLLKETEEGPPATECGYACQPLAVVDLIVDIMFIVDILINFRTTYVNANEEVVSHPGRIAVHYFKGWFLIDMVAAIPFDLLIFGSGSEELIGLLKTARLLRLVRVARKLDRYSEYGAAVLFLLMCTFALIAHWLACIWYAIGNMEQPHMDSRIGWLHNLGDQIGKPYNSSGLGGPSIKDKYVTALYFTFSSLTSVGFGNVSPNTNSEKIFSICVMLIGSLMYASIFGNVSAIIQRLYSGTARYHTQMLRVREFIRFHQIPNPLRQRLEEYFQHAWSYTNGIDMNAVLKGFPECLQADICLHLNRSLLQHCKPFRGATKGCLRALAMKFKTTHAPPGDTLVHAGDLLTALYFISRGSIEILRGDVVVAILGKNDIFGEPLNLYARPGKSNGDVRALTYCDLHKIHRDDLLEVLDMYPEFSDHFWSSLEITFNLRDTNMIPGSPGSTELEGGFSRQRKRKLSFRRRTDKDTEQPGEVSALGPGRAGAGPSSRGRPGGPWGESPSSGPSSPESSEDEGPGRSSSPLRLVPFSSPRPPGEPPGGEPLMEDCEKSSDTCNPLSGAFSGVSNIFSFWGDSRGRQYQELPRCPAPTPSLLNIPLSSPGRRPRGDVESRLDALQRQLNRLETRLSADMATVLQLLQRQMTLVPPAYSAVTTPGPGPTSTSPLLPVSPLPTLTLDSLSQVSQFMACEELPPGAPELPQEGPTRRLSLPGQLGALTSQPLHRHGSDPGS

Row | SMILES | pEC50 [1] | pEC50 [2] | also measured
1 | CC(C)(C)OC(=O)N1CCC(C2CCN(c3ccncn3)CC2)CC1 | 6.42 | 6.94 | 
2 | CC(C)(C)OC(=O)N1CCC(C2CCN(c3ccccn3)CC2)CC1 | 5.60 | 6.08 | 
3 | Cc1cccc(N2CCC(C3CCN(C(=O)OC(C)(C)C)CC3)CC2)c1 |  | 6.29 | Activity [3]: < 10%
4 | CS(=O)(=O)c1ccc(N2CCC(C3CCN(c4ncc(Cl)cn4)CC3)CC2)cc1 | 8.10 | 8.30 | 
5 | CS(=O)(=O)c1ccc(N2CCC(C3CCN(c4ccc(Cl)cn4)CC3)CC2)cc1 | 6.88 | 7.32 | clearance [4]: 2 mL/min/kg; AUC [5]: 19.3 µM·kg·h/mg; half-life [6]: 810 min; Vd [7]: 2.3 L/kg
6 | CS(=O)(=O)c1ccc(N2CCC(C3CCN(c4ccc(F)cn4)CC3)CC2)cc1 | 6.69 | 7.72 | 
7 | C[S+]([O-])c1ccc(N2CCC(C3CCN(C(=O)OC(C)(C)C)CC3)CC2)cc1 (stereo unspecified) | 6.88 | 7.96 | 
8 | CC(=O)c1ccc(N2CCC(C3CCN(C(=O)OC(C)(C)C)CC3)CC2)cc1 | 6.47 | 7.60 | 
9 | CS(=O)(=O)c1ccc(N2CCC(C3CCN(c4ccc(C(F)(F)F)cn4)CC3)CC2)cc1 | 8.10 | 7.89 | 
10 | Cc1ccc(N2CCC(C3CCN(c4ccc(S(C)(=O)=O)cc4)CC3)CC2)nc1 | 7.14 | 7.74 | 
11 | CC(C)(C)OC(=O)N1CCC(C2CCN(c3cccc(C(N)=O)c3)CC2)CC1 |  |  | Activity [8]: < 10%; Activity [3]: < 10%
12 | CS(=O)(=O)c1ccc(N2CCC(C3CCN(c4ncccn4)CC3)CC2)cc1 | 6.05 | 7.01 | 
13 | CC(C)(C)OC(=O)N1CCC(C2CCN(c3ccccc3)CC2)CC1 |  | 5.85 | Activity [3]: < 10%
14 | O=C(NC1CC1)c1ccc(OCCC2CC2C2CCN(c3ncc(Cl)cn3)CC2)cc1F (single isomer, unassigned; (+)) | 8.30 | 7.85 | pIC50 [9]: < 4.52
15 | CC(C)(C)OC(=O)N1CCC(C2CCN(c3cccc(S(C)(=O)=O)c3)CC2)CC1 |  | 5.72 | Activity [3]: < 10%
16 | CC(C)(C)OC(=O)N1CCC(C2CCN(c3cnccn3)CC2)CC1 | 6.85 | 6.99 | 
17 | CC(C)(C)OC(=O)N1CCC(C2CCN(c3ccnc(C#N)n3)CC2)CC1 | 7.96 | 8.22 | 
18 | CS(=O)(=O)c1ccc(N2CCC(C3CCN(c4cnccn4)CC3)CC2)cc1 | 6.62 | 6.70 | 
19 | CC(C)(C)OC(=O)N1CCC(C2CCN(c3ccc(S(C)(=O)=O)cc3)CC2)CC1 | 7.44 | 7.66 | clearance [4]: 120 mL/min/kg; AUC [5]: 0.09 µM·kg·h/mg; half-life [6]: 36 min; Vd [7]: 6.9 L/kg
20 | Clc1cnc(N2CCC([C@H]3C[C@H]3CCOc3ccc(-n4ccnn4)cc3)CC2)nc1 | 8.22 | 8.40 | solubility [10]: 5000 µg/mL (≈ 11.8 mM); minimal effective dose [11]: 10 mg/kg
21 | CC(C)(C)OC(=O)N1CCC(C2CCN(c3ccc(C(N)=O)cc3)CC2)CC1 | 6.78 | 7.12 | 
22 | Cc1ccc(N2CCC(C3CCN(C(=O)OC(C)(C)C)CC3)CC2)cc1 | 5.72 | 6.47 | 

Row | SMILES | pEC50 [1] | pEC50 [2] | also measured
23 | CS(=O)(=O)c1ccc(N2CCC(C3CCN(c4ccccn4)CC3)CC2)cc1 | 6.17 | 7.41 | 
24 | Cc1ccccc1N1CCC(C2CCN(C(=O)OC(C)(C)C)CC2)CC1 |  |  | Activity [8]: < 10%; Activity [3]: < 10%
25 | CC(C)(C)OC(=O)N1CCC(C2CCN(c3ncccn3)CC2)CC1 | 6.28 | 6.28 | 
26 | Clc1cnc(N2CCC([C@H]3C[C@H]3CCOc3ccc(-n4ccnn4)cn3)CC2)nc1 | 8.40 | 8.70 | solubility [10]: 11400 µg/mL (≈ 26.8 mM); minimal effective dose [11]: 1 mg/kg; pIC50 [12]: 4.36
27 | O=C(NC1CC1)c1ccc(OCCC2CC2C2CCN(c3ncc(Cl)cn3)CC2)cc1F (single isomer, unassigned; (-)) | 8.70 | 8.52 | pIC50 [9]: 5.59
28 | O=C(NC1CC1)c1ccc(OCC2CC2CC2CCN(c3ncc(Cl)cn3)CC2)cc1F (racemic; 57) | 7.74 | 8.05 | pIC50 [9]: < 4.52
29 | O=C(NC1CC1)c1ccc(OCC2CC2C2CCN(c3ncc(Cl)cn3)CC2)cc1F (racemic; 52) | 7.64 | 7.70 | 
30 | O=C(NC1CC1)c1ccc(OCCCC2CC2CCCC2CCN(c3ncc(Cl)cn3)CC2)cc1F (racemic) | 9.10 | 9.70 | 
31 | O=C(NC1CC1)c1ccc(OCCC2CC2C2CCN(c3ncc(Cl)cn3)CC2)cc1F (racemic) | 9.40 | 9.52 | pIC50 [9]: < 4.52
32 | Cc1ccnc(N2CCC(C3CCN(c4ccc(S(C)(=O)=O)cc4)CC3)CC2)n1 |  |  | Activity [8]: < 10%; Activity [3]: < 10%
33 | CC(C)(C)OC(=O)N1CCC(C2CCN(c3cc(C#N)ncn3)CC2)CC1 | 7.51 | 8.22 | 
34 | Cc1cnc(N2CCC(C3CCN(c4cc(C#N)nc(C)n4)CC3)CC2)cn1 | 7.09 | 7.52 | Activity [13]: 7%; pIC50 [9]: 5.27
35 | Cc1cnc(N2CCC(C3CCN(c4cc(C#N)nc(C)n4)CC3)CC2)nc1 | 8.00 | 8.10 | Activity [13]: 46%; pIC50 [9]: 5.74
36 | Cc1cc(N2CCC(C3CCN(C(=O)OC(C)(C)C)CC3)CC2)nc(C#N)n1 | 8.70 | 9.00 | 
37 | CSc1ccc(N2CCC(C3CCN(C(=O)OC(C)(C)C)CC3)CC2)cc1 | 6.29 | 6.22 | 
38 | O=C(NC1CC1)c1ccc(OCC2CC2C2CCN(c3ncc(Cl)cn3)CC2)cc1F (racemic; 51) | 8.05 | 7.42 | 
39 | Cc1nc(C#N)cc(N2CCC(C3CCN(C(=O)OC(C)(C)C)CC3)CC2)n1 | 8.70 | 8.70 | 
40 | Cc1cnc(N2CCC(C3CCN(c4ccc(S(C)(=O)=O)cc4)CC3)CC2)nc1 | 7.35 | 7.24 | 
41 | O=C(NC1CC1)c1ccc(OCC2CC2CC2CCN(c3ncc(Cl)cn3)CC2)cc1F (racemic; 56) | 7.44 | 7.74 | pIC50 [9]: 5.92
42 | Cc1cc(N2CCC(C3CCN(c4ncc(Cl)cn4)CC3)CC2)nc(C#N)n1 | 7.96 | 8.70 | Activity [13]: 37%
43 | CS(=O)(=O)c1ccc(N2CCC(C3CCN(c4ccc(C#N)cn4)CC3)CC2)cc1 | 7.39 | 7.21 | 
44 | CC(C)(C)OC(=O)N1CCC(C2CCN(c3cccnc3)CC2)CC1 |  | 5.44 | Activity [3]: < 10%
